Results reported in PubChem BioAssay AID2060495 (Molecular Pharmacology Branch, DTP, NCI, 2025).
Values belong to the compound of their own block, whether it stands above or below them.

Test system: 521955-158-R2-J5-PDC complex spheroid viability
Experiment: Anticancer human tumor 521955-158-R2-J5-PDC patient-derived pancreatic carcinoma cell line growth inhibition [GQUAD]
Details: for IC50: curve of first compound; for viability, T/C: stronger effect = lower value
Excerpt: DNA G-quadruplex Stabilizer Agents in Combinations in Complex Spheroids
A high-throughput screen of multi-cell type tumor spheroids was designed to identify active combinations of DNA G-quadruplex stabilizer agents and targeted small molecules. Complex spheroids include a stromal component modeled by human endothelial cells (HUVEC) and fibroblasts modeled by human mesenchymal stem cells (MSCs). The concentration ranges selected for each drug and investigational agent were based upon clinically achievable concentrations if the clinical Cmax of the agent was known.
Compounds. The drugs and investigational agents: pidnarulex (CX-5461; NSC782164), APTO-253 (NSC789042), BRACO-19 (NSC847499), peposertib (NSC802822), ceralasertib (NSC780249), elimusertib (NSC800525), camonsertib (NSC841442), AZD-1390 (NSC803789), olaparib (NSC753686), talazoparib (NSC767125), ART-558 (NSC835418), sotorasib (NSC818433), MRTX-1133 (NSC836407), SN-38 (NSC673596), topotecan (NSC609699), etoposide (NSC141540), doxorubicin (NSC123127), gemcitabine (NSC613327), 5-fluorouracil (NSC19893), paclitaxel (NSC125973), vemurafenib (NSC761431), panobinostat (NSC761190), R-306465 (JNJ-16241199; NSC773264), adavosertib (NSC754352), TP-3654 (NSC805149), carboplatin (NSC241240), KSQ-4279 (NSC840948), and staurosporine (NSC755774) were obtained from the National Cancer Institute (NCI) Developmental Therapeutics Program Chemical Repository (34). The FDA-approved anticancer drug set is available from the NCI Developmental Therapeutics Program. […] The stock solutions were prepared in dimethyl sulfoxide (DMSO, Sigma-Aldrich, St. Louis, MO, cat. D2650) at 800-fold the tested concentration and stored at -70 degrees C prior to their use. All drugs and investigational agents were tested over a range starting from a high concentration at or near the clinical Cmax and decreasing in half-log increments. If the clinical Cmax for an agent had not been determined, the highest concentration tested was 10 microM.
2.3 Cell Culture. All cells were maintained in an incubator at 37 degrees C and 5% CO2 with 95% humidity. The PDC lines were cultured according to standard operating procedures established by the NCI PDMR. All PDCs were thawed and cultured in Matrigel-coated flasks prepared with a working solution of 1X Ham's F-12 nutrient mix, without supplementation (Invitrogen, cat. 11765054), 100 U/mL penicillin-streptomycin (Invitrogen, cat. 15140122), and 2.5% Matrigel (Corning Inc., cat. 354248) for the first three passages. The 857933-349-R-J2-PDC line was cultured in 6C/Colon 1B media, which includes advanced DMEM/F-12 (Thermo Fisher Scientific, cat. 12634028), 10 mM HEPES (Thermo Fisher Scientific, cat. 15630080), 1X GlutaMAX supplement (Thermo Fisher Scientific, cat. 35050061), 0.1 mg/mL primocin (InvivoGen, cat. ant-pm-2), 10% defined fetal bovine serum, heat inactivated (HyClone Laboratories Inc., cat. SH30070.03HI), 50% L-WRN conditioned media (ATCC, cat. CRL-3276), 1.25 mM N-Acetyl-L-cysteine (Sigma-Aldrich, cat. A9165), 10 mM nicotinamide (Sigma-Aldrich, cat. N0636), 1X B-27 supplement (Thermo Fisher Scientific, cat. 17504044), 1X N-2 supplement (Thermo Fisher Scientific, cat. 17502048), 10 microM Y-27632 dihydrochloride (Tocris Bioscience, cat. 1254), and 50 ng/mL human EGF recombinant protein (Thermo Fisher Scientific, cat. PHG0311). The 485176-168-R4-J1-PDC line was cultured in Panc media, which includes all 6C/Colon 1B media components plus 100 ng/mL human FGF-10 (Thermo Fisher Scientific, cat. 100-26), 500 nM SB-431542 (Selleckchem, cat. S1067), and gastrin (Tocris, cat. 3006).
[…]

[1] = second compound 0.0316 µM, first compound 0.0316 µM
[2] = second compound 0.0316 µM, first compound 0.1 µM
[3] = second compound 0.0316 µM, first compound 0.316 µM
[4] = second compound 0.0316 µM, first compound 1 µM
[5] = second compound 0.0316 µM, first compound 3.16 µM
[6] = second compound 0.0316 µM, first compound 10 µM
[7] = second compound 0.1 µM, first compound 0.0316 µM
[8] = second compound 0.1 µM, first compound 0.1 µM
[9] = second compound 0.1 µM, first compound 0.316 µM
[10] = second compound 0.1 µM, first compound 1 µM
[11] = second compound 0.1 µM, first compound 3.16 µM
[12] = second compound 0.1 µM, first compound 10 µM
[13] = second compound 0.316 µM, first compound 0.0316 µM
[14] = second compound 0.316 µM, first compound 0.1 µM
[15] = second compound 0.316 µM, first compound 0.316 µM
[16] = second compound 0.316 µM, first compound 1 µM
[17] = second compound 0.316 µM, first compound 3.16 µM
[18] = second compound 0.316 µM, first compound 10 µM
[19] = second compound 1 µM, first compound 0.0316 µM
[20] = second compound 1 µM, first compound 0.1 µM
[21] = second compound 1 µM, first compound 0.316 µM
[22] = second compound 1 µM, first compound 1 µM
[23] = second compound 1 µM, first compound 3.16 µM
[24] = second compound 1 µM, first compound 10 µM
[25] = second compound 3.16 µM, first compound 0.0316 µM
[26] = second compound 3.16 µM, first compound 0.1 µM
[27] = second compound 3.16 µM, first compound 0.316 µM
[28] = second compound 3.16 µM, first compound 1 µM
[29] = second compound 3.16 µM, first compound 3.16 µM
[30] = second compound 3.16 µM, first compound 10 µM
[31] = second compound 10 µM, first compound 0.0316 µM
[32] = second compound 10 µM, first compound 0.1 µM
[33] = second compound 10 µM, first compound 0.316 µM
[34] = second compound 10 µM, first compound 1 µM
[35] = second compound 10 µM, first compound 3.16 µM
[36] = second compound 10 µM, first compound 10 µM
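Further: spheroids exposed to agents for one week before reading.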
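Wherever viability, T/C is given: 100% = DMSO vehicle control viability.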

IC50 (second compound 0.0316 µM): 1680 nM | IC50 (second compound 0.1 µM): 1200 nM | IC50 (second compound 0.316 µM): < 31.6 nM | IC50 (second compound 1 µM): < 31.6 nM | IC50 (second compound 3.16 µM): < 31.6 nM | IC50 (second compound 10 µM): < 31.6 nM
SMILES: CC(C)(O)C1CCC(Nc2ccc3ncc(-c4cccc(C(F)(F)F)c4)n3n2)CC1 (centres undefined) + Cc1cnc(CNC(=O)c2c(=O)c3ccc(N4CCCN(C)CC4)nc3n3c2sc2ccccc23)cn1
viability, T/C [1]: 79% | viability, T/C [2]: 64.6% | viability, T/C [3]: 90.4% | viability, T/C [4]: 106% | viability, T/C [5]: 6.53% | viability, T/C [6]: 7.58% | viability, T/C [7]: 57.4% | viability, T/C [8]: 57.8% | viability, T/C [9]: 56.5% | viability, T/C [10]: 58.6% | viability, T/C [11]: 9.19% | viability, T/C [12]: 8.3% | viability, T/C [13]: 36.9% | viability, T/C [14]: 30.2% | viability, T/C [15]: 34% | viability, T/C [16]: 31.8% | viability, T/C [17]: 7.87% | viability, T/C [18]: 8.39% | viability, T/C [19]: 18.4% | viability, T/C [20]: 21.1% | viability, T/C [21]: 16.7% | viability, T/C [22]: 22.3% | viability, T/C [23]: 0.25% | viability, T/C [24]: 1.56% | viability, T/C [25]: 18.8% | viability, T/C [26]: 16.6% | viability, T/C [27]: 17.7% | viability, T/C [28]: 15% | viability, T/C [29]: 0.12% | viability, T/C [30]: 0.12% | viability, T/C [31]: 9.8% | viability, T/C [32]: 14% | viability, T/C [33]: 10.7% | viability, T/C [34]: 8.62% | viability, T/C [35]: 0.21% | viability, T/C [36]: 0.23%

IC50 (second compound 0.0316 µM): 9260 nM | IC50 (second compound 0.1 µM): > 10000 nM | IC50 (second compound 0.316 µM): < 31.6 nM | IC50 (second compound 1 µM): < 31.6 nM | IC50 (second compound 3.16 µM): < 31.6 nM | IC50 (second compound 10 µM): < 31.6 nM
SMILES: CCCS(=O)(=O)Nc1ccc(F)c(C(=O)c2c[nH]c3ncc(-c4ccc(Cl)cc4)cc23)c1F + Cc1cnc(CNC(=O)c2c(=O)c3ccc(N4CCCN(C)CC4)nc3n3c2sc2ccccc23)cn1
viability, T/C [1]: 79.5% | viability, T/C [2]: 63.5% | viability, T/C [3]: 113% | viability, T/C [4]: 113% | viability, T/C [5]: 109% | viability, T/C [6]: 46.8% | viability, T/C [7]: 52.4% | viability, T/C [8]: 69.6% | viability, T/C [9]: 59.4% | viability, T/C [10]: 64% | viability, T/C [11]: 61.8% | viability, T/C [12]: 39% | viability, T/C [13]: 32% | viability, T/C [14]: 37.3% | viability, T/C [15]: 27.1% | viability, T/C [16]: 32.6% | viability, T/C [17]: 35.7% | viability, T/C [18]: 26.4% | viability, T/C [19]: 17.8% | viability, T/C [20]: 18.2% | viability, T/C [21]: 17.9% | viability, T/C [22]: 18.9% | viability, T/C [23]: 24.2% | viability, T/C [24]: 16.8% | viability, T/C [25]: 12.7% | viability, T/C [26]: 14.3% | viability, T/C [27]: 16.8% | viability, T/C [28]: 16.1% | viability, T/C [29]: 20.7% | viability, T/C [30]: 0.32% | viability, T/C [31]: 9.58% | viability, T/C [32]: 16.2% | viability, T/C [33]: 16.9% | viability, T/C [34]: 18.7% | viability, T/C [35]: 21.4% | viability, T/C [36]: 0.33%
